Results as given in US10961200B2, “Small molecule inhibitors of lactate dehydrogenase and methods of use thereof” (THE UNITED STATES OF AMERICA, AS REPRESENTED BY THE …, priority 2014, dated 2021).
Counter-ions that a name gives are not always drawn. Like-named read-outs stand apart in the source and are kept apart here.

Tests used:
MiaPaCa2 cells = experiment: cell-based HT lactate assay, colorimetric/fluorometric detection (inhibition of lactate production); conditions: class symbols, 0 to 3 pluses
Human LDHA = Human LDHA (Homo sapiens (Human), UniProt P00338); experiment: human LDHA primary biochemical assay (resazurin/diaphorase coupled, fluorescence)
Source text: Test compounds were placed in a Greiner Bio-One (Monroe, N.C.) 1536-well black solid bottom assay plate. 200 millimolar (mM) Tris HCl, pH 7.4, 100 micromolar […] EDTA and 0.01% TWEEN-20™, final concentration, was used as the assay buffer. The LDHA reagent was 2 nanomolar (nM) Human LDHA (Meridian Life Science, Inc., Memphis, Tenn.), final concentration, in assay buffer.

[1] = LDHA inhibitory activity, assay of Example 1, activity level classes
[2] = read-out: Inhibitory activity IC50
[3] = LDHA inhibitory activity, activity level based on IC50 (Table 7)

Cn1c(C(=O)O)cnc1-n1cc(Cc2ccc(S(N)(=O)=O)cc2)c(-c2ccccc2)n1 [Compound 212, 1-methyl-2-(3-phenyl-4-(4-sulfamoylbenzyl)-1H-pyrazol-1-yl)-1H-imidazole-5-carboxylic acid]
IC50 (MiaPaCa2 cells; Homo sapiens, MIA PaCa-2): > 57000 nM | IC50 (Human LDHA; [1]): > 57000 nM

Cc1csc(-c2cc(-c3nn(-c4nc(C(=O)O)cs4)c(CC4CC4)c3Cc3ccc(S(N)(=O)=O)cc3F)ccc2F)c1 [Compound 221, 2-(5-(cyclopropylmethyl)-3-(4-fluoro-3-(4-methylthiophen-2-yl)phenyl)-4-(2-fluoro-4-sulfamoylbenzyl)-1H-pyrazol-1-yl)thiazole-4-carboxylic acid]
IC50 (MiaPaCa2 cells; Homo sapiens, MIA PaCa-2): < 1000 nM | IC50 (Human LDHA; [2]): < 100 nM

NS(=O)(=O)c1ccc(Cc2cn(-c3cc(C(=O)O)cs3)nc2-c2ccccc2)cc1 [Compound 213, 5-(3-phenyl-4-(4-sulfamoylbenzyl)-1H-pyrazol-1-yl)thiophene-3-carboxylic acid]
IC50 (MiaPaCa2 cells; Homo sapiens, MIA PaCa-2): > 57000 nM | IC50 (Human LDHA; [2]): 1000 to 57000 nM

NS(=O)(=O)c1ccc(Cc2c(-c3ccc(F)c(C#CCN4CCOCC4)c3)nn(-c3nc(C(=O)O)cs3)c2CC2CC2)cc1F [Compound 263]
IC50 (MiaPaCa2 cells): 10000 to 57000 nM | IC50 (Human LDHA; [1]): < 100 nM

Cc1csc(-c2cc(-c3nn(-c4nc(C(=O)O)cs4)c(CC4CC4)c3Cc3ccc(S(N)(=O)=O)c(F)c3)ccc2F)c1 [Compound 223, 2-(5-(cyclopropylmethyl)-3-(4-fluoro-3-(4-methylthiophen-2-yl)phenyl)-4-(3-fluoro-4-sulfamoylbenzyl)-1H-pyrazol-1-yl)thiazole-4-carboxylic acid]
IC50 (MiaPaCa2 cells; Homo sapiens, MIA PaCa-2): < 1000 nM | IC50 (Human LDHA; [2]): < 100 nM

NS(=O)(=O)c1ccc(Cc2cn(-c3nc(C(=O)O)cs3)nc2-c2ccc(F)c(-c3cccc(F)c3)c2)cc1 [Compound 458, 2-(3-(3′,6-difluoro-[1,1′-biphenyl]-3-yl)-4-(4-sulfamoylbenzyl)-1H-pyrazol-1-yl)thiazole-4-carboxylic acid]
IC50 (MiaPaCa2 cells; Homo sapiens, MIA PaCa-2): 1000 to 10000 nM | IC50 (Human LDHA; [3]): < 100 nM

N[S+](=O)([O-])c1ccc(Cc2c(-c3ccc(F)c(C4=COCCC4)c3)nn(-c3nc(C(=O)O)cs3)c2CC2CC2)cc1F [Compound 379]
IC50 (MiaPaCa2 cells): < 1000 nM | IC50 (Human LDHA; [3]): < 100 nM

Cc1cc(-c2cccc(F)c2)cc(-c2nn(-c3nc(C(=O)O)cs3)c(CC3CC3)c2Cc2ccc(S(N)(=O)=O)cc2)c1 [Compound 505, 2-(5-(cyclopropylmethyl)-3-(3′-fluoro-5-methyl-[1,1′-biphenyl]-3-yl)-4-(4-sulfamoylbenzyl)-1H-pyrazol-1-yl)thiazole-4-carboxylic Acid]
IC50 (MiaPaCa2 cells; Homo sapiens, MIA PaCa-2): 1000 to 10000 nM | IC50 (Human LDHA; [3]): < 100 nM

NS(=O)(=O)c1ccc(Cc2c(-c3ccc(F)c(-c4cccs4)c3)nn(-c3nc(C(=O)O)cs3)c2CC2CC2)cc1F [Compound 234, 2-(5-(cyclopropylmethyl)-3-(4-fluoro-3-(thiophen-2-yl)phenyl)-4-(3-fluoro-4-sulfamoylbenzyl)-1H-pyrazol-1-yl)thiazole-4-carboxylic acid, TFA]
IC50 (MiaPaCa2 cells; Homo sapiens, MIA PaCa-2): < 1000 nM | IC50 (Human LDHA; [2]): < 100 nM

Cc1c(Cc2ccc(S(N)(=O)=O)cc2)c(-c2ccccc2)nn1-c1nc(C(=O)O)cs1 [Compound 47, 2-(5-methyl-3-phenyl-4-(4-sulfamoylbenzyl)-1H-pyrazol-1-yl)thiazole-4-carboxylic acid]
IC50 (MiaPaCa2 cells; Homo sapiens, MIA PaCa-2): > 57000 nM | IC50 (Human LDHA; [1]): < 100 nM

N[S+](=O)([O-])c1ccc(Cc2c(-c3ccc(F)c(C#CC4CCCC4)c3)nn(-c3nc(C(=O)O)cs3)c2CC2CC2)cc1 [Compound 430]
IC50 (MiaPaCa2 cells): < 1000 nM | IC50 (Human LDHA; [3]): < 100 nM

NS(=O)(=O)c1ccc(Cc2c(-c3cccc(N4CCC(F)(F)CC4)c3)nn(-c3nc(C(=O)O)cs3)c2CC2CC2)cc1F [Compound 394]
IC50 (MiaPaCa2 cells): 10000 to 57000 nM | IC50 (Human LDHA; [3]): < 100 nM

NS(=O)(=O)c1ccc(Cc2c(-c3ccc(F)c(C#Cc4cccs4)c3)nn(-c3nc(C(=O)O)cs3)c2CC2CC2)cc1F [Compound 403]
IC50 (MiaPaCa2 cells): < 1000 nM | IC50 (Human LDHA; [3]): < 100 nM

Cc1noc(C)c1-c1cc(-c2nn(-c3nc(C(=O)O)cs3)c(CC3CC3)c2Cc2ccc(S(N)(=O)=O)c(F)c2)ccc1F [Compound 219, 2-(5-(cyclopropylmethyl)-3-(3-(3,5-dimethylisoxazol-4-yl)-4-fluorophenyl)-4-(3-fluoro-4-sulfamoylbenzyl)-1H-pyrazol-1-yl)thiazole-4-carboxylic acid]
IC50 (MiaPaCa2 cells; Homo sapiens, MIA PaCa-2): 1000 to 10000 nM | IC50 (Human LDHA; [2]): < 100 nM

NS(=O)(=O)c1ccc(Cc2c(-c3cccc(-c4ccccc4)c3)nn(-c3nc(C(=O)O)cs3)c2CC(F)(F)F)cc1 [Compound 304]
IC50 (MiaPaCa2 cells): 10000 to 57000 nM | IC50 (Human LDHA; [1]): 100 to 1000 nM

CC#Cc1cc(-c2nn(-c3nc(C(=O)O)cs3)c(CC3CC3)c2Cc2cccc([S+](N)(=O)[O-])c2)ccc1F [Compound 422]
IC50 (MiaPaCa2 cells): 10000 to 57000 nM | IC50 (Human LDHA; [3]): < 100 nM

Cc1noc(C)c1-c1cc(-c2nn(-c3nc(C(=O)O)cs3)c(CC3CC3)c2Cc2ccc(S(N)(=O)=O)cc2F)ccc1F [Compound 215, 2-(5-(cyclopropylmethyl)-3-(3-(3,5-dimethylisoxazol-4-yl)-4-fluorophenyl)-4-(2-fluoro-4-sulfamoylbenzyl)-1H-pyrazol-1-yl)thiazole-4-carboxylic acid]
IC50 (MiaPaCa2 cells; Homo sapiens, MIA PaCa-2): 10000 to 57000 nM | IC50 (Human LDHA; [2]): < 100 nM

NS(=O)(=O)c1ccc(Cc2c(-c3cc(OC4CCCC4)ccc3F)nn(-c3nc(C(=O)O)cs3)c2CC2CC2)cc1 [Compound 468, 2-(3-(5-(cyclopentyloxy)-2-fluorophenyl)-5-(cyclopropylmethyl)-4-(4-sulfamoylbenzyl)-1H-pyrazol-1-yl)thiazole-4-carboxylic acid]
IC50 (MiaPaCa2 cells; Homo sapiens, MIA PaCa-2): 1000 to 10000 nM | IC50 (Human LDHA; [3]): 100 to 1000 nM

NS(=O)(=O)c1ccc(Cc2c(-c3ccc(F)c(C4C5CC6CC(C5)CC4C6)c3)nn(-c3nc(C(=O)O)cs3)c2CC2CC2)cc1F (stereo not drawn) [Compound 375]
IC50 (MiaPaCa2 cells): 1000 to 10000 nM | IC50 (Human LDHA; [3]): 100 to 1000 nM

N[S+](=O)([O-])c1ccc(Cc2c(-c3ccc(F)c(C4=CCN(C(=O)C5CC5)CC4)c3)nn(-c3nc(C(=O)O)cs3)c2CC2CC2)cc1F [Compound 380]
IC50 (MiaPaCa2 cells): 1000 to 10000 nM | IC50 (Human LDHA; [3]): < 100 nM

CCOC(=O)c1csc(-n2nc(-c3ccc(F)c(-c4cccc(F)c4)c3)c(Cc3ccc([S+](N)(=O)[O-])c(F)c3)c2CC2CC2)n1 [Compound 377]
IC50 (MiaPaCa2 cells): > 57000 nM | IC50 (Human LDHA; [3]): > 57000 nM

N[S+](=O)([O-])c1ccc(Cc2c(-c3ccc(F)c(C4CC4)c3)nn(-c3nc(C(=O)O)cs3)c2CC2CC2)cc1F [Compound 385]
IC50 (MiaPaCa2 cells): < 1000 nM | IC50 (Human LDHA; [3]): < 100 nM

NS(=O)(=O)c1ccc(Cc2c(-c3cccc(C(O)(C4CC4)C(F)(F)F)c3)nn(-c3nc(C(=O)O)cs3)c2CC2CC2)cc1F (stereo not drawn) [Compound 398]
IC50 (MiaPaCa2 cells): 10000 to 57000 nM | IC50 (Human LDHA; [3]): < 100 nM

N[S+](=O)([O-])c1cccc(Cc2c(-c3ccc(F)c(C#CC4CCCC4)c3)nn(-c3nc(C(=O)O)cs3)c2CC2CC2)c1 [Compound 438]
IC50 (MiaPaCa2 cells): 1000 to 10000 nM | IC50 (Human LDHA; [3]): 100 to 1000 nM

NS(=O)(=O)c1ccc(Cc2c(-c3ccc(F)c(CC4CC4)c3)nn(-c3nc(C(=O)O)cs3)c2CC2CC2)cc1F [Compound 378]
IC50 (MiaPaCa2 cells): < 1000 nM | IC50 (Human LDHA; [3]): < 100 nM

COc1cccc(-c2cc(-c3nn(-c4nc(C(=O)O)cs4)c(CC4CC4)c3Cc3ccc(S(N)(=O)=O)c(F)c3)ccc2F)c1 [Compound 330]
IC50 (MiaPaCa2 cells): < 1000 nM | IC50 (Human LDHA; [1]): < 100 nM

NS(=O)(=O)c1ccc(Cc2c(-c3cccc(-c4ccccc4)c3)nn(-c3nc(C(=O)O)cs3)c2CC2CC2)cc1F [Compound 331]
IC50 (MiaPaCa2 cells): < 1000 nM | IC50 (Human LDHA; [1]): < 100 nM

C#Cc1cc(-c2nn(-c3nc(C(=O)O)cs3)c(CC3CC3)c2Cc2ccc(S(N)(=O)=O)c(F)c2)ccc1F [Compound 410]
IC50 (MiaPaCa2 cells): < 1000 nM | IC50 (Human LDHA; [3]): < 100 nM

NS(=O)(=O)c1ccc(Cc2c(-c3cccc(-c4ccccc4)c3)nn(-c3nc(C(=O)O)cs3)c2CC2CC2)c(F)c1 [Compound 290]
IC50 (MiaPaCa2 cells): < 1000 nM | IC50 (Human LDHA; [1]): < 100 nM

NS(=O)(=O)c1ccc(Cc2c(-c3cccc(Oc4ccccc4)c3)nn(-c3nc(C(=O)O)cs3)c2C2CC2)cc1 [Compound 502, 2-(5-cyclopropyl-3-(3-phenoxyphenyl)-4-(4-sulfamoylbenzyl)-1H-pyrazol-1-yl)thiazole-4-carboxylic acid]
IC50 (MiaPaCa2 cells; Homo sapiens, MIA PaCa-2): 1000 to 10000 nM | IC50 (Human LDHA; [3]): < 100 nM

NS(=O)(=O)c1ccc(Cc2c(-c3ccc(F)c(OCc4ccc(F)cc4)c3)nn(-c3nc(C(=O)O)cs3)c2CC2CC2)cc1 [Compound 527, 2-(5-(cyclopropylmethyl)-3-(4-fluoro-3-((4-fluorobenzyl)oxy)phenyl)-4-(4-sulfamoylbenzyl)-1H-pyrazol-1-yl)thiazole-4-carboxylic Acid]
IC50 (MiaPaCa2 cells; Homo sapiens, MIA PaCa-2): 1000 to 10000 nM | IC50 (Human LDHA; [3]): < 100 nM

N[S+](=O)([O-])c1ccc(Cc2c(-c3ccc(F)c(-c4ccccc4F)c3)nn(-c3nc(C(=O)O)cs3)c2CC2CC2)cc1F [Compound 366]
IC50 (MiaPaCa2 cells): < 1000 nM | IC50 (Human LDHA; [3]): < 100 nM

NS(=O)(=O)c1ccc(Cc2c(-c3ccc(F)c(C(F)(F)F)c3)nn(-c3nc(C(=O)O)cs3)c2CC2CC2)cc1F [Compound 542, 2-(5-(cyclopropylmethyl)-3-(4-fluoro-3-(trifluoromethyl)phenyl)-4-(3-fluoro-4-sulfamoylbenzyl)-1H-pyrazol-1-yl)thiazole-4-carboxylic acid]
IC50 (MiaPaCa2 cells; Homo sapiens, MIA PaCa-2): 1000 to 10000 nM | IC50 (Human LDHA; [3]): < 100 nM

Cc1ccc(-c2cc(-c3nn(-c4nc(C(=O)O)cs4)c(CC4CC4)c3Cc3ccc(S(N)(=O)=O)c(F)c3)ccc2F)o1 [Compound 230, 2-(5-(cyclopropylmethyl)-3-(4-fluoro-3-(5-methylfuran-2-yl)phenyl)-4-(3-fluoro-4-sulfamoylbenzyl)-1H-pyrazol-1-yl)thiazole-4-carboxylic acid]
IC50 (MiaPaCa2 cells; Homo sapiens, MIA PaCa-2): < 1000 nM | IC50 (Human LDHA; [2]): < 100 nM

CN1CC=C(c2cc(-c3nn(-c4nc(C(=O)O)cs4)c(CC4CC4)c3Cc3ccc(S(N)(=O)=O)c(F)c3)ccc2F)CC1 [Compound 259]
IC50 (MiaPaCa2 cells): 10000 to 57000 nM | IC50 (Human LDHA; [1]): < 100 nM

N[S+](=O)([O-])c1ccc(Cc2c(-c3ccc(F)c(-c4cccc(F)c4)c3)nn(-c3nc(C(=O)O)cs3)c2CC2CC2)c(F)c1 [Compound 324]
IC50 (MiaPaCa2 cells): < 1000 nM | IC50 (Human LDHA; [1]): < 100 nM
